These results are taken from paper PMC5090206, “Fluselenamyl: A Novel Benzoselenazole Derivative for PET Detection of Amyloid Plaques (Aβ) in Alzheimer’s Disease” (Scientific Reports, 2016).

The target of this data set is Aβ plaques (Homo sapiens, UniProt P05067). Nature of the data set: Real time multiphoton imaging in APP+/−/PS1+/− mice. Type of data set: in vivo. To be noted: 2 mg/kg intravenous. The text has this: For assessing viability of molecules as imaging probes in vivo[48], various imaging modalities, such as nuclear imaging (PET/SPECT), optical imaging, and MRI have been used to investigate simultaneously distribution kinetics and target-receptor specificity. While the resolution of PET and MRI allow in vivo imaging at relatively moderate resolution, the multiphoton microscopy enables evaluation of kinetics at a sub-micrometer resolution[49]. […] The generation of various transgenic (tg) animals overexpressing mutant human APP and/or PS1 and PS2, tg APP mice expressing ApoE isoforms including those for Tau offer attractive models for unravelling biochemical pathways prevalent in pathophysiology of AD[50]. […] Literature precedents indicate Aβ deposition by 2 months of age, with gradual quantitative increase at six months^55. […] Compared with barely detectable auto-fluorescence levels prior to imaging transgenic APP^+/−/PS1^+/− mice (Fig. 8, first panel), bright fluorescence appeared almost instantaneously following administration of 5. Fluorescence first appeared in large and small blood vessels within the brain. Within minutes (10 min), the brain parenchyma was uniformly bright in fluorescence, and Aβ deposits were labeled. […]
For imaging 5 labeled plaques, two-photon fluorescence was generated with 800 nm excitation, and fluorescent emission was detected in the range of 435-485nm. […]

Chain of Aβ plaques (P05067 672-711 limits assumed): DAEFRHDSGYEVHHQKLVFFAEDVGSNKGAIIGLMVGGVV

As to `CN(C)c1ncc(/C=C\c2nc3cc(OCCF)ccc3[se]2)cn1` [compound 5, (Z)-5-(2-(5-(2-fluoroethoxy)benzo[d][1,3]selenazol-2-yl)vinyl)-N,N-dimethylpyrimidin-2-amine], the “time at which labeling of parenchymal plaques peaked” value is “approximately 10 min”.
